Results taken from patent US7420001B2 (Wyeth, priority 2003, dated 2008).
Read-outs that look alike come from different tables or passages of the source.

Columns and labels:
MMP-2 = target: T1, MMP-2 (Homo sapiens, UniProt P08253); test: In-vitro fluorescence assay of MMP-2 activity; type: biochemical; details: recombinant human MMP-2; read-out: MMP-2 IC50
T1 construct: purchased Oncogene Research Products (Calbiochem) PF023
T1 sequence (P08253 110-660): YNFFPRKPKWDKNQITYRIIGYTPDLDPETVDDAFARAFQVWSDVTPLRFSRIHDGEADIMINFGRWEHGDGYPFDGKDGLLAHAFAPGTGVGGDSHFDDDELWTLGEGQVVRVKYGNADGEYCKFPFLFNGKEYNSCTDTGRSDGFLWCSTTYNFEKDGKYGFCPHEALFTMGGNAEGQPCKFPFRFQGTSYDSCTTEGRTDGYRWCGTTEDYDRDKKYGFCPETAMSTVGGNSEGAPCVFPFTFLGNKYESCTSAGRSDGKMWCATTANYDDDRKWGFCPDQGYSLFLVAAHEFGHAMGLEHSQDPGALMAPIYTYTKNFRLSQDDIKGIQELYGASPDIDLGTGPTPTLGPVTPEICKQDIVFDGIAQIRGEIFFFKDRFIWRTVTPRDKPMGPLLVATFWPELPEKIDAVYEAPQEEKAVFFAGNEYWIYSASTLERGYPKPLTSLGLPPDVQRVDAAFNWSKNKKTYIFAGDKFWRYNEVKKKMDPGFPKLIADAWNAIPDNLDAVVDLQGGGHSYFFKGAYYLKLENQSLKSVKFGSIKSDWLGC

MMP-12 = target: T2, MMP-12 (Homo sapiens, UniProt P39900); test: In vitro fluorescence assay of MMP-12 activity; type: biochemical; details: recombinant human MMP-12
T2 construct: made in house
T2 sequence (P39900 106-280 limits assumed): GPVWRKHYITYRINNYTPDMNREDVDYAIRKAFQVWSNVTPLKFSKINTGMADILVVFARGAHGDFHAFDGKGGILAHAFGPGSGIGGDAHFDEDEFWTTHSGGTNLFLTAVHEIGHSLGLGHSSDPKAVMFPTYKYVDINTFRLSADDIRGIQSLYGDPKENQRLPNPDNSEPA

MMP-13 = target: T3, MMP-13 (Homo sapiens, UniProt P45452); test: In-vitro fluorescence assay of MMP-13 activity; type: biochemical
T3 construct: made in house

MMP-14 = target: T4, MMP-14 (Homo sapiens, UniProt P50281); test: In-vitro fluorescence assay of MMP-14 activity; type: biochemical
T4 construct: 20 kDa; purchased Chemicon International, Inc. CC 1041

MMP-1 = target: T5, MMP-1 (Homo sapiens, UniProt P03956)
T5 sequence (P03956 100-269 limits assumed): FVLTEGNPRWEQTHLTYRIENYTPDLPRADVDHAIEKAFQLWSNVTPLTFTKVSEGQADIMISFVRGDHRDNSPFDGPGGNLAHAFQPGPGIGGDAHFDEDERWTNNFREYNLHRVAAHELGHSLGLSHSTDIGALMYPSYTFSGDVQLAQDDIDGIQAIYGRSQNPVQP

[1] = recombinant human catalytic domain of MMP-13, read-out: MMP-13 IC50
[2] = recombinant human catalytic domain of MMP-14

| IC50 (MMP-2) | IC50 (MMP-12) | IC50 (MMP-13; [1]) | IC50 (MMP-14; [2]) | IC50 (MMP-1) | IC50 (MMP-13; MMP-13 IC50, recombinant human catalytic domain of MMP-13) | Structure (SMILES) | IC50 (MMP-14) | IC50 (MMP-1; read-out: MMP-1 IC50, recombinant human catalytic domain of MMP-1) |
| --- | --- | --- | --- | --- | --- | --- | --- | --- |
| 15000 nM | 175 nM | 9.5 nM | – | – | – | CC#Cc1cccc2oc(C(=O)Nc3ccc(-c4ccc(S(=O)(=O)N[C@H](C(=O)O)C(C)C)cc4)cc3)c(C)c12 [Example 21, L-3-Methyl-2-{4′-[(3-methyl-4-prop-1-ynyl-benzofuran-2-carbonyl)-amino]-biphenyl-4-sulfonylamino}-butyric acid] | – | – |
| 3810 nM | 226 nM | 25 nM | – | – | – | CC(=O)Nc1cccc2oc(C(=O)Nc3ccc(-c4ccc(S(=O)(=O)N[C@H](C(=O)O)C(C)C)cc4)cc3)c(C)c12 [Example 48, L-2-{4′-[(4-Acetylamino-3-methyl-benzofuran-2-carbonyl)-amino]-biphenyl-4-sulfonylamino}-3-methyl-butyric acid] | – | – |
| 4350 nM | 51 nM | 43 nM | – | – | – | Cc1nn(C)c2sc(C(=O)Nc3ccc(-c4ccc(S(=O)(=O)N[C@H](C(=O)O)C(C)C)cc4)cc3)cc12 [Example 80, (S)-2-{4′-[(1,3-Dimethyl-1H-thieno[2,3-c]pyrazole-5-carbonyl)-amino]-biphenyl-4-sulfonylamino}-3-methyl-butyric acid] | – | – |
| 3590 nM | 121 nM | 7.4 nM | – | – | – | CCOc1cccc2oc(C(=O)Nc3ccc(-c4ccc(S(=O)(=O)N[C@H](C(=O)O)C(C)C)cc4)cc3)c(C)c12 [Example 106, (S)-2-{4′-[(4-ethoxy-3-methyl-benzofuran-2-carbonyl)-amino]-biphenyl-4-sulfonylamino}-3-methyl-butyric acid] | – | – |
| 0.7 nM | – | 0.5 nM | 2000 nM | 20000 nM | – | CC(C)[C@@H](NS(=O)(=O)c1ccc(-c2ccc(OC(=O)c3cc4ccccc4o3)cc2)cc1)C(=O)O [Example 135, Benzofuran-2-carboxylic acid 4′-(1-carboxy-2-methyl-propylsulfamoyl)-biphenyl-4-yl ester] | – | – |
| – | 1.1 nM | 0.7 nM | – | – | – | CC(C)[C@@H](NS(=O)(=O)c1ccc(-c2ccc(NC(=O)c3nc4ccccc4s3)cc2)cc1)C(=O)O [Example 152, D-2-{4′-[(Benzothiazole-2-carbonyl)-amino]-biphenyl-4-sulfonylamino}-3-methyl-butyric acid] | – | – |
| 14 nM | – | 0.5 nM | 17000 nM | 40000 nM | – | CC(C)[C@H](NS(=O)(=O)c1ccc(-c2ccc(NC(=O)c3cc4c(ccc5ccccc54)o3)cc2)cc1)C(=O)O [Example 153, L-3-Methyl-2-{4′-[(naphtho[2,1-b]furan-2-carbonyl)-amino]-biphenyl-4-sulfonylamino}-butyric acid] | – | – |
| 1290 nM | – | 99 nM | 36000 nM | 60000 nM | – | Cc1cc(C(=O)Nc2ccc(-c3ccc(S(=O)(=O)N[C@H](C(=O)O)C(C)C)cc3)cc2)nn1-c1ccccc1 [Example 168, (S)-3-Methyl-2-{4′-[(5-methyl-1-phenyl-1H-pyrazole-3-carbonyl)-amino]-biphenyl-4-sulfonylamino}-butyric acid] | – | – |
| 1190 nM | – | 75 nM | 40000 nM | 40400 nM | – | CC(C)[C@H](NS(=O)(=O)c1ccc(-c2ccc(NC(=O)c3csc(-c4ccncc4)n3)cc2)cc1)C(=O)O [Example 169, (S)-3-Methyl-2-{4′-[(2-pyridin-4-yl-thiazole-4-carbonyl)-amino]-biphenyl-4-sulfonylamino}-butyric acid] | – | – |
| 61 nM | – | 25 nM | 6130 nM | 7400 nM | – | CC(C)[C@H](NS(=O)(=O)c1ccc(-c2ccc(NC(=O)c3cccs3)cc2)cc1)C(=O)O [Example 174, (S)-3-Methyl-2-{4′-[(thiophene-2-carbonyl)-amino]-biphenyl-4-sulfonylamino}-butyric acid] | – | – |
| 5.7 nM | – | 11 nM | 2910 nM | 3090 nM | – | CC(C)[C@H](NS(=O)(=O)c1ccc(-c2ccc(NC(=O)c3ccco3)cc2)cc1)C(=O)O [Example 175, (S)-2-{4′-[(Furan-2-carbonyl)-amino]-biphenyl-4-sulfonylamino}-3-methyl-butyric acid] | – | – |

Second part, the molecule before the results:

| Structure (SMILES) | IC50 (MMP-2) | IC50 (MMP-12) | IC50 (MMP-13; [1]) | IC50 (MMP-14; [2]) | IC50 (MMP-1) | IC50 (MMP-13; MMP-13 IC50, recombinant human catalytic domain of MMP-13) | IC50 (MMP-14) | IC50 (MMP-1; read-out: MMP-1 IC50, recombinant human catalytic domain of MMP-1) |
| --- | --- | --- | --- | --- | --- | --- | --- | --- |
| COCC#Cc1cccc2oc(C(=O)Nc3ccc(-c4ccc(S(=O)(=O)N[C@H](C(=O)O)C(C)C)cc4)cc3)c(C)c12 [Example 22, L-2-(4′-{[4-(3-Methoxy-prop-1-ynyl)-3-methyl-benzofuran-2-carbonyl]-amino}-biphenyl-4-sulfonylamino)-3-methyl-butyric acid] | 1940 nM | 137 nM | 12 nM | – | – | – | – | – |
| Cc1c(C(=O)Nc2ccc(-c3ccc(S(=O)(=O)N[C@H](C(=O)O)C(C)C)cc3)cc2)oc2cccc(C#CCN(C)C)c12 [Example 31, L-2-(4′-{[4-(3-Dimethylamino-prop-1-ynyl)-3-methyl-benzofuran-2-carbonyl]-amino}-biphenyl-4-sulfonylamino)-3-methyl-butyric acid] | 1450 nM | 155 nM | 16 nM | – | – | – | – | – |
| Cc1c(C(=O)Nc2ccc(-c3ccc(S(=O)(=O)N[C@H](C(=O)O)C(C)C)cc3)cc2)oc2cccc(NS(C)(=O)=O)c12 [Example 36, L-2-{4′-[(4-Methanesulfonylamino-3-methyl-benzofuran-2-carbonyl)-amino]-biphenyl-4-sulfonylamino}-3-methyl-butyric acid] | 2250 nM | 126 nM | 11 nM | – | – | – | – | – |
| Cc1c(C(=O)Nc2ccc(-c3ccc(S(=O)(=O)N[C@H](C(=O)O)C(C)C)cc3)cc2)oc2cccc(NC(=O)C3CC3)c12 [Example 47, L-2-(4′-{[4-(Cyclopropanecarbonyl-amino)-3-methyl-benzofuran-2-carbonyl]-amino}-biphenyl-4-sulfonylamino)-3-methyl-butyric acid] | 4290 nM | 438 nM | 32 nM | – | – | – | – | – |
| Cc1c(C(=O)Nc2ccc(-c3ccc(S(=O)(=O)N[C@H](C(=O)O)C(C)C)cc3)cc2)oc2cccc(OCC3CC3)c12 [Example 51, L-2-{4′-[(4-Cyclopropylmethoxy-3-methyl-benzofuran-2-carbonyl)-amino]-biphenyl-4-sulfonylamino}-3-methyl-butyric acid] | 7110 nM | 187 nM | 11 nM | – | – | – | – | – |
| CC(C)[C@@H](C(=O)O)N(CCN1CCOCC1)S(=O)(=O)c1ccc(-c2ccc(NC(=O)c3cc4ccccc4o3)cc2)cc1 [Example 82, N-({4′-[(1-Benzofuran-2-ylcarbonyl)amino]-1,1′-biphenyl-4-yl}sulfonyl)-N-(2-morpholin-4-ylethyl)-L-valine] | 30 nM | – | 18 nM | > 60000 nM | > 10000 nM | – | – | – |
| Cc1c(C(=O)Nc2ccc(-c3ccc(S(=O)(=O)N[C@H](C(=O)O)C(C)C)cc3)cc2)oc2ccccc12 [Example 83, N-[(4′-{[(3-Methyl-1-benzofuran-2-yl)carbonyl]amino}-1,1′-biphenyl-4-yl)sulfonyl]-L-valine] | 259 nM | – | 5.9 nM | 12400 nM | 24300 nM | – | – | – |
| COc1cccc2oc(C(=O)Nc3ccc(-c4ccc(S(=O)(=O)N[C@H](C(=O)O)C(C)C)cc4)cc3)c(C)c12 [Example 105, (S)-2-{4′-[(4-Methoxy-3-methyl-benzofuran-2-carbonyl)-amino]-biphenyl-4-sulfonylamino}-3-methyl-butyric acid] | 1050 nM | 60 nM | 9.5 nM | – | – | – | – | – |
| Cc1c(C(=O)Nc2ccc(-c3ccc(S(=O)(=O)N[C@H](C(=O)O)C(C)C)cc3)cc2)oc2cccc(-c3ccccc3)c12 [Example 109, (S)-3-Methyl-2-{4′-[(3-methyl-4-phenyl-benzofuran-2-carbonyl)-amino]-biphenyl-4-sulfonylamino}-butyric acid] | 3650 nM | – | – | 7000 nM | 11000 nM | 15 nM | – | – |
| Cc1c(C(=O)Nc2ccc(-c3ccc(S(=O)(=O)N[C@H](C(=O)O)C(C)C)cc3)cc2)oc2cccc(-c3cccc([N+](=O)[O-])c3)c12 [Example 110, (S)-3-Methyl-2-(4′-{[3-methyl-4-(3-nitro-phenyl)-benzofuran-2-carbonyl]-amino}-biphenyl-4-sulfonylamino)-butyric acid] | 2400 nM | – | 17 nM | 20000 nM | 49600 nM | – | – | – |
| COc1c(Br)ccc2oc(C(=O)Nc3ccc(-c4ccc(S(=O)(=O)N[C@H](C(=O)O)C(C)C)cc4)cc3)c(C)c12 [Example 118, (S)-2-{4′-[(5-bromo-4-methoxy-3-methyl-benzofuran-2-carbonyl)-amino]-biphenyl-4-sulfonylamino}-3-methyl-butyric acid] | 1700 nM | – | 2.3 nM | – | – | – | 14600 nM | 30000 nM |
